Measurements reported in patent US8937181B2, “Benzenesulfonamide compounds and the use thereof” (Purdue Pharma L.P., priority 2006, dated 2015).

Key:
[1] = target: T1, N-type calcium channel (NTCC) (Homo sapiens, UniProt Q00975); assay: FLIPR calcium mobilization assay for N-type calcium channel; type: cell-based; conditions: calcium mobilization in vitro assay; differentiated IMR32 cells, 5 μM nitrendipine, 90 mM KCl
T1 construct: host or cells: IMR32 cells differentiated with dibutyryl cAMP and bromodeoxyuridine
Method: Unless noted otherwise, cell culture reagents were purchased from Mediatech of Herndon, Md. IMR32 cells (American Type Culture Collection, ATCC, Manassas, Va.) were routinely cultured in growth medium consisting of minimum essential medium containing 10% fetal bovine serum (FBS, Hyclone, Logan, Utah), 100 U/mL penicillin, 100 μg/mL streptomycin, 2 mM L-glutamine, 1 mM sodium pyruvate, and 1×MEM non-essential amino acids. 80-90% confluent flasks of cells were differentiated using the following differentiation medium: Growth medium plus 1 mM dibutyryl cyclic AMP (Sigma, St. Louis, Mo.), and 2.5 μM bromodeoxyuridine (Sigma). Cells were differentiated for 8 days by replacing differentiation medium every 2-3 days.
FLIPR Calcium Mobilization Assay for N-type Calcium Channel.
One day prior to performing this assay, differentiated IMR32 cells were treated with 1× CellStripper, and seeded on poly-D-lysine-coated 96-well clear-bottom black plates (Becton Dickinson, Franklin Lakes, N.J.) at 200,000 cells/well. On the day of the assay, the cell plates were washed with IMR32 buffer (127 mM NaCl, 1 mM KCl, 2 mM MgCl2, 700 μM NaH2PO4, 5 mM CaCl2, 5 mM NaHCO3, 8 mM HEPES, 10 mM glucose, pH7.4), then pre-stimulated with KCl and loaded as follows: 0.05 mL of IMR32 buffer, 0.05 mL of each compound tested diluted in IMR32 buffer containing 20 μM nitrendipine (Sigma), and 0.1 mL KCl dissolved in IMR32 buffer, plus Fluo-4 were added (3 μM final concentration, Molecular Probes, Eugene, Oreg.). Final test compound concentrations ranged from about 846 pM to about 17 μM, final nitrendipine concentration was 5 μM, and final KCl concentration was 90 mM. After 1 hour, the cells were washed twice with 0.05 mL of each compound tested in nitrendipine-containing IMR32 buffer (no KCl or Fluo-4), and then replaced with 0.1 mL of each compound tested in nitrendipine-containing IMR32 buffer. Plates were then transferred to a Fluorimetric Imaging Plate Reader (FLIPR^96, Molecular Devices, Inc., Sunnyvale, Calif.) for assay. The FLIPR measured basal Fluo-4 fluorescence for 315 seconds (i.e., 5 minutes and 15 seconds), then added 0.1 mL KCl agonist dissolved in IMR32 buffer and measured fluorescence for another 45 seconds. Final test compound concentrations on the cells after FLIPR read ranged from about 846 pM to about 17 μM, final nitrendipine concentration was 5 μM, and final KCl concentration was 90 mM. Data were collected over the entire time course and analyzed using Excel, Graph Pad Prism (version 3.02, Graph Pad, San Diego, Calif.), or an in-house non-linear regression analysis software.

[2] = target: T2, L-type calcium channel (LTCC) (Rattus norvegicus, UniProt P22002); assay: FLIPR calcium mobilization assay for L-type calcium channel; type: cell-based; conditions: calcium mobilization in vitro assay; HEK293 cells stably expressing recombinant rat LTCC subunits (α1c, α2δ, β1), 90 mM KCl
T2 construct: The 6.5 kb cDNA encoding the L-type calcium channel α1c subunit was cloned by PCR amplification from rat heart cDNA; expressed in transfected cells
T2 sequence (P22002 whole entry): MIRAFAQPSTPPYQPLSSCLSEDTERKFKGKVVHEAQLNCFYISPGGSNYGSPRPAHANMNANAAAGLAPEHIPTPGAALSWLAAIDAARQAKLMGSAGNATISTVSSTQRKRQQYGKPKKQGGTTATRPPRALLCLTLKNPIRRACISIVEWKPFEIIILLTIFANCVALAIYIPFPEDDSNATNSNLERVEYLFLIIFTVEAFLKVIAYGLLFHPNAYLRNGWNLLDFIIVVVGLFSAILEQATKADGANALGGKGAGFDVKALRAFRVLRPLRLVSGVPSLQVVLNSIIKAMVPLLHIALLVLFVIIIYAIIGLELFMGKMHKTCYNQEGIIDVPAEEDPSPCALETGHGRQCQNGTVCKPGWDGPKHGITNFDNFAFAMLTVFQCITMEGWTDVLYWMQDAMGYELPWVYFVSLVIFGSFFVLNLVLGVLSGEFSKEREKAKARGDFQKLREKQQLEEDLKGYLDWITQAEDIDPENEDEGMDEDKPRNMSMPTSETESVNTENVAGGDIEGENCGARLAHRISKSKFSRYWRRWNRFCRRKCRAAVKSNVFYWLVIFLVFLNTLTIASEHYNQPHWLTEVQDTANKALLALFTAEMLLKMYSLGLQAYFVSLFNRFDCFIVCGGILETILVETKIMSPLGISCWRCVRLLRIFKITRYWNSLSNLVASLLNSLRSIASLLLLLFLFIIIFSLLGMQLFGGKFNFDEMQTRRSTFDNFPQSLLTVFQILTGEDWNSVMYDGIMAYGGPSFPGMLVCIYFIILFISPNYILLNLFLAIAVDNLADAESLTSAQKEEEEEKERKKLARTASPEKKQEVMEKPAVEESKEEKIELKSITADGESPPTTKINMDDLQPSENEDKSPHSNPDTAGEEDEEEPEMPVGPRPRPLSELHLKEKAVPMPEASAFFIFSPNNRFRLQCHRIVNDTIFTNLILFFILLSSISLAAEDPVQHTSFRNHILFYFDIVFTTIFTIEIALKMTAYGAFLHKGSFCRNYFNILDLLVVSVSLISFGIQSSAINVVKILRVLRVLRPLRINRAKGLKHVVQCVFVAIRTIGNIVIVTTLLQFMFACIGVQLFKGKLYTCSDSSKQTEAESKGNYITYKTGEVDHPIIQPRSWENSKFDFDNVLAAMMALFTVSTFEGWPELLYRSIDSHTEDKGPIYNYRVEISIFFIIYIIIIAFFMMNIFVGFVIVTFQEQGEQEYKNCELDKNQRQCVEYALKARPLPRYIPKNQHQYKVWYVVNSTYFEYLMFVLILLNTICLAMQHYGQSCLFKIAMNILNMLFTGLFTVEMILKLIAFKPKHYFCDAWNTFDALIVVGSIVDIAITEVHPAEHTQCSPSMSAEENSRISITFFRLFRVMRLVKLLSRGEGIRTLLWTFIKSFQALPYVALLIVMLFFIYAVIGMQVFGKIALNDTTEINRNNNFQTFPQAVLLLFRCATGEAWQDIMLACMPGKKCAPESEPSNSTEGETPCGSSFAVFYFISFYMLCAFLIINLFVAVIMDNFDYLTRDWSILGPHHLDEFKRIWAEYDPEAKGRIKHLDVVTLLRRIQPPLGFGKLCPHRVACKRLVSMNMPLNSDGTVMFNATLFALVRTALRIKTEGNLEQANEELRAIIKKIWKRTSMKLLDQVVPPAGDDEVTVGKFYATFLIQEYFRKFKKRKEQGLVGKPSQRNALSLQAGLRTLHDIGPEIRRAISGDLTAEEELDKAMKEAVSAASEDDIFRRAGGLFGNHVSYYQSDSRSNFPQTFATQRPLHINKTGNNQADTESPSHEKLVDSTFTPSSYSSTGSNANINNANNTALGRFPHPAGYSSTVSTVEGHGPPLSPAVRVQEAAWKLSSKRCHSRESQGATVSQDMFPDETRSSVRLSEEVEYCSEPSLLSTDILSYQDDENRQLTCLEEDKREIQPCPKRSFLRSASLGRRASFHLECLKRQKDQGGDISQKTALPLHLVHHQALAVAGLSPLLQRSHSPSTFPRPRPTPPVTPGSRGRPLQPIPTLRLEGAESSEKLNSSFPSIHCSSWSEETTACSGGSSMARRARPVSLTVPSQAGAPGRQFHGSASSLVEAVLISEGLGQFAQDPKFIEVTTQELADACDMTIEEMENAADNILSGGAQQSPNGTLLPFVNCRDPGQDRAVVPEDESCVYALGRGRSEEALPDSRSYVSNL
T2 sequence (P54290 25-944 partner limits assumed): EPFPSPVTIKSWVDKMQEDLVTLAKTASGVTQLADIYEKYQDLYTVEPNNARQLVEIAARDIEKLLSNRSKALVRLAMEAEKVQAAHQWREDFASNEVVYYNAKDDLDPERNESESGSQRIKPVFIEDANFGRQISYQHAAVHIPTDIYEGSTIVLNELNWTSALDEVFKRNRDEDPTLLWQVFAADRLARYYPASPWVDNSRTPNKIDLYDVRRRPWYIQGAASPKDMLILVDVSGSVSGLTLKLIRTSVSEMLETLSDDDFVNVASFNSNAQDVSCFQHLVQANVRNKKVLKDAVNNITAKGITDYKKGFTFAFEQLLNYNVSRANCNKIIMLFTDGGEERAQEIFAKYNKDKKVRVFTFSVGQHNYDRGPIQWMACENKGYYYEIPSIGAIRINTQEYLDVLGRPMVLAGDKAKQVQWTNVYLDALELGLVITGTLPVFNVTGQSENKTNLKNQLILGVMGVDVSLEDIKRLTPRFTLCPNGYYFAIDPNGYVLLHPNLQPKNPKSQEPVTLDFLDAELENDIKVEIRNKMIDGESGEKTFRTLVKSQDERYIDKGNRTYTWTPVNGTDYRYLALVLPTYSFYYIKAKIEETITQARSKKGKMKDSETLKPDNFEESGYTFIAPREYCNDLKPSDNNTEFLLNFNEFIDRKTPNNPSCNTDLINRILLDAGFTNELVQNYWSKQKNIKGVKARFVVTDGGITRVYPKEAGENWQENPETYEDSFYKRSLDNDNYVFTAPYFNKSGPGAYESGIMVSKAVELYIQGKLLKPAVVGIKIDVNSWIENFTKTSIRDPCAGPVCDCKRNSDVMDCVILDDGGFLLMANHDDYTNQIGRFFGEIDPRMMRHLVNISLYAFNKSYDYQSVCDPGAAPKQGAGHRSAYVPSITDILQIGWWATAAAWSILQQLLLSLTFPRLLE
T2 sequence (P54290 945-1091 partner limits assumed): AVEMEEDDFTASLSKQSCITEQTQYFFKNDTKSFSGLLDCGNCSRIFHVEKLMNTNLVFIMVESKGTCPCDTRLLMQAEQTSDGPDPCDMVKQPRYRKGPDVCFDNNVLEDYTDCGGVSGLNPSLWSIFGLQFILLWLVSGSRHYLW
T2 sequence (P54283 whole entry partner): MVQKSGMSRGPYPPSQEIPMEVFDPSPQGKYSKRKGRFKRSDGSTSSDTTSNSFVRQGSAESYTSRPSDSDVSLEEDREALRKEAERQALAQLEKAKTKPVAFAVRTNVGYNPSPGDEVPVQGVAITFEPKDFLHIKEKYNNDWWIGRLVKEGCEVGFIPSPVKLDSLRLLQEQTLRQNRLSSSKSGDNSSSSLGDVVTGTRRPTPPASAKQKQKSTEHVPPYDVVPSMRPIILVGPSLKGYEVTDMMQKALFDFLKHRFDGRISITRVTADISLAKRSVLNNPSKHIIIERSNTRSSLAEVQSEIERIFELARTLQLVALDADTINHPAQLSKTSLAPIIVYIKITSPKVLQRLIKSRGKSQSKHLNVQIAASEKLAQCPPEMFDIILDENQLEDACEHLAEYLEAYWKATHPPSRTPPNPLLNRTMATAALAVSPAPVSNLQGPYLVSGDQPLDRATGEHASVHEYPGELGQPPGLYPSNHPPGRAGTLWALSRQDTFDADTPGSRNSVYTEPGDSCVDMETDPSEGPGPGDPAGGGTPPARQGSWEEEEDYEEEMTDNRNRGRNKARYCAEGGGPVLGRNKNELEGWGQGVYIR
Method: Recombinant human embryonal kidney cells (HEK293, ATCC) stably transfected with either N-type calcium channel (NTCC) subunits (α1b, α2δ, and β3) or L-type calcium channel (LTCC) subunits (α1c, α2δ, and β1) were routinely cultured in growth medium consisting of Dulbecco's Modified Eagles Medium containing 10% FBS, 100 U/mL penicillin, 100 μg/mL streptomycin, 4 mM L-glutamine, 500 μg/mL geneticin (G418), 20 μg/mL Blasticidin S (InVivogen, San Diego, Calif.) and 500 μg/mL zeocin (InVivogen).
FLIPR Calcium Mobilization Assay for L-type Calcium Channel.
One day prior to performing this assay, HEK293 cells stably expressing recombinant rat L-type calcium channel (LTCC) subunits (α1c, α2δ, and β1) were trypsinized, then seeded on poly-D-lysine-coated 96-well clear-bottom black plates (Becton Dickinson, Franklin Lakes, N.J.) at 75,000 cells/well. On the day of the assay, the plates were washed with LTCC wash buffer (127 mM NaCl, 2 mM MgCl2, 700 μM NaH2PO4, 5 mM CaCl2, 5 mM NaHCO3, 8 mM HEPES, 10 mM glucose, pH7.4), then loaded with 0.1 mL of LTCC wash buffer containing Fluo-4 (3 μM final concentration, Molecular Probes, Eugene, Oreg.). After 1 hour, the cells were washed with 0.1 mL LTCC wash buffer and resuspended in 0.05 mL LTCC assay buffer (same composition as LTCC wash buffer). Plates were then transferred to a FLIPR^96 for assay. The FLIPR measured basal Fluo-4 fluorescence for 15 seconds, then added 0.05 mL of each compound tested diluted in LTCC assay buffer at final concentrations ranging from about 846 pM to about 17 μM. Fluo-4 fluorescence was then measured for 5 minutes. 0.1 mL KCl agonist dissolved in LTCC assay buffer was then added to the cells to produce a final concentration of 90 mM KCl, and fluorescence was measured for another 45 seconds. Data were collected over the entire time course and analyzed using Excel, Graph Pad Prism, or an in-house regression analysis software.

SMILES	IC50 [1]	IC50 [2]
N[C@@H]1CCCC[C@@H]1C(=O)N1CCC(N(C2CC2)S(=O)(=O)c2cccc(C(F)(F)F)c2)CC1 (racemic) [Compound 4, rac-N-[1-((1S,2R)-2-Amino-cyclohexanecarbonyl)-piperidin-4-yl]-N-cyclopropyl-3-trifluoromethyl-benzenesulfonamide]	0.57 µM	> 20 µM
N[C@@H]1CCC[C@@H]1C(=O)N1CCC(N(C2CC2)S(=O)(=O)c2cccc(C(F)(F)F)c2)CC1 (racemic) [Compound 5, rac-N-[1-((1S,2R)-2-Amino-cyclopentanecarbonyl)-piperidin-4-yl]-N-cyclopropyl-3-trifluoromethyl-benzenesulfonamide]	0.29 µM	> 20 µM
CC(C)N(C1CCN(C(=O)[C@H]2CCC[C@H]2N)CC1)S(=O)(=O)c1cccc(C(F)(F)F)c1 (racemic) [rac-N-[1-((1S,2R)-2-amino-cyclopentanecarbonyl)-piperidin-4-yl}-N-isopropyl-3-trifluoromethylbenzenesulfonamide]	3.69 µM	–
O=C(CCN1CCC(O)CC1)N1CCC(N(C2CC2)S(=O)(=O)c2cccc(C(F)(F)F)c2)CC1 [Compound 2, N-Cyclopropyl-N-{1-[3-(4-hydroxy-piperidin-1-yl)-propionyl]-piperidin-4-yl}-3-trifluoromethyl-benzenesulfonamide]	2.47 µM	–
O=C(CCN[C@H]1CC[C@H](O)CC1)N1CCC(N(C2CC2)S(=O)(=O)c2cccc(C(F)(F)F)c2)CC1 [Compound 3, N-Cyclopropyl-N-{1-[3-(4-hydroxy-cyclohexylamino)-propionyl]-piperidin-4-yl}-3-trifluoromethyl-benzenesulfonamide]	3.04 µM	–
O=C(c1ccc(=O)[nH]c1)N1CCC(N(C2CC2)S(=O)(=O)c2cccc(C(F)(F)F)c2)CC1 [Compound 6, N-Cyclopropyl-N-[1-(6-oxo-1,6-dihydro-pyridine-3-carbonyl)-piperidin-4-yl]-3-trifluoromethyl-benzenesulfonamide]	8.58 µM	–
O=C(c1ccccn1)N1CCC(N(C2CC2)S(=O)(=O)c2cccc(C(F)(F)F)c2)CC1 [Compound 7, N-Cyclopropyl-N-[1-(pyridine-2-carbonyl)-piperidin-4-yl]-3-trifluoromethyl-benzenesulfonamide]	5.53 µM	–
O=C(c1cccnc1)N1CCC(N(C2CC2)S(=O)(=O)c2cccc(C(F)(F)F)c2)CC1 [Compound 8, N-Cyclopropyl-N-[1-(pyridine-3-carbonyl)-piperidin-4-yl]-3-trifluoromethyl-benzenesulfonamide]	7.25 µM	–
O=C(c1ccncc1)N1CCC(N(C2CC2)S(=O)(=O)c2cccc(C(F)(F)F)c2)CC1 [Compound 9, N-Cyclopropyl-N-[1-(pyridine-4-carbonyl)-piperidin-4-yl]-3-trifluoromethyl-benzenesulfonamide]	8.68 µM	–
O=C(c1ccccc1[N+](=O)[O-])N1CCC(N(C2CC2)S(=O)(=O)c2cccc(C(F)(F)F)c2)CC1 [Compound 10, N-Cyclopropyl-N-[1-(2-nitro-benzoyl)-piperidin-4-yl]-3-trifluoromethyl-benzenesulfonamide]	0.76 µM	3.06 µM
Nc1ccccc1C(=O)N1CCC(N(C2CC2)S(=O)(=O)c2cccc(C(F)(F)F)c2)CC1 [Compound 11, N-[1-(2-Amino-benzoyl)-piperidin-4-yl]-N-cyclopropyl-3-trifluoromethyl-benzenesulfonamide]	0.68 µM	10 to 20 µM
O=C(c1ccccc1NCCO)N1CCC(N(C2CC2)S(=O)(=O)c2cccc(C(F)(F)F)c2)CC1 [Compound 13, N-Cyclopropyl-N-{1-[2-(2-hydroxy-ethylamino)-benzoyl]-piperidin-4-yl}-3-trifluoromethyl-benzenesulfonamide]	0.33 µM	> 20 µM
CC(C)N(C1CCN(C(=O)CNC2CCCCC2)CC1)S(=O)(=O)c1cccc(C(F)(F)F)c1 [Compound 25a, N-[1-(2-Cyclohexylamino-acetyl)-piperidin-4-yl]-N-isopropyl-3-trifluoromethylbenzenesulfonamide]	0.19 µM	10 to 20 µM
CC(C)N(C1CCN(C(=O)CN2CCCC(O)C2)CC1)S(=O)(=O)c1cccc(C(F)(F)F)c1 (stereo not drawn) [Compound 25b, N-{1-[2-(3-Hydroxy-piperidin-1-yl)-acetyl]-piperidin-4-yl}-N-isopropyl-3-trifluoromethylbenzenesulfonamide]	3.35 µM	–
O=C(CNC1CCCC1)N1CCC(N(C2CC2)S(=O)(=O)c2cccc(C(F)(F)F)c2)CC1 [Compound 25c, N-[1-(2-Cyclopentylamino-acetyl)-piperidin-4-yl]-N-cyclopropyl-3-trifluoromethylbenzenesulfonamide]	0.28 µM	> 20 µM
CC(C)N(C1CCN(C(=O)CN2Cc3ccccc3C2)CC1)S(=O)(=O)c1cccc(C(F)(F)F)c1 [Compound 25d, N-[1-(2-1,3-Dihydro-isoindol-2-yl-acetyl)-piperidin-4-yl]-N-isopropyl-3-trifluoromethylbenzenesulfonamide]	1.14 µM	–
CC(C)N(C1CCN(C(=O)CN2CCCC(F)(F)C2)CC1)S(=O)(=O)c1cccc(C(F)(F)F)c1 [Compound 25e, N-{1-[2-(3,3-Difluoro-piperidin-1-yl)-acetyl]-piperidin-4-yl}-N-isopropyl-3-trifluoromethylbenzenesulfonamide]	0.88 µM	> 20 µM
CC(C)N(C1CCN(C(=O)CN2CCC(F)(F)C2)CC1)S(=O)(=O)c1cccc(C(F)(F)F)c1 [Compound 25f, N-{1-[2-(3,3-Difluoro-pyrrolidin-1-yl)-acetyl]-piperidin-4-yl}-N-isopropyl-3-trifluoromethylbenzenesulfonamide]	3.98 µM	7.81 µM
